Tested on: diabetic wounds
Assay: Closure of full thickness flank skin wounds in diabetic mice, topical treatment
Assay type: in vivo, mice (C57BLKs/Bom db/db)
Settings: for % wound area remaining relative to day 0 (mean ± standard error): six wounds
Description: Female diabetic mice (C57BLKs/Bom db/db; B&M, Denmark) aged approximately 16 weeks will be used in this study. On arrival mice were housed in groups of 5 to 10 according to Home Office regulations. On the first day of the study period, animals were housed in individual cages (cage dimensions 35×15×15 cm with sawdust bedding, changed twice weekly), in an environment maintained at an ambient temperature of 23° C. with 12-hour light/dark cycles. They were provided with food (Standard Rodent Diet) and water ad libitum. To acclimatise the animals to their surroundings, prior to experimentation, they were housed for a minimum of one week without disturbance, other than to refresh their bedding and to replenish their food and water provisions. Following wounding, animals were monitored until they had fully recovered from the procedure and then housed under individual conditions for the remainder of the study period. All animal procedures were carried out in a Home Office licensed establishment in accordance with Home Office Licence procedures. Animals were anaesthetised (halothane and air) and shaved. A single standardised full thickness wound (7.5 mm×7.5 mm) was created in the flank skin of each experimental animal. Wounds received, saline [50 μl], vehicle [50 μl pH 4.0 vehicle], 1 μg of p38 MAP kinase inhibitor [in 50 μl pH 4.0 vehicle] or 10 μg of p38 MAP kinase inhibitor [in 50 μl pH 4.0 vehicle]. The p38 MAP kinase inhibitor had the following formula: All wounds were secondarily dressed with a 1.5×1.5 cm pad of RELEASE dressing (Johnson & Johnson Wound Management). The RELEASE pad was held in place using a circumferential band of the occlusive film dressing Bioclusive (Johnson & Johnson Wound Management). Animals were re-anaesthetized and treatments re-applied on days 2, 4, 7, 9 and 11-post wounding. Immediately after wounding and subsequently on days 2, 4, 7, 9, 11 and 14 all wounds were digitally photographed together with a calibration/identity plate. On day 14 of the study animals will be euthanised. Image Pro image analysis software (version 4.1.0.0, Media Cybernetics, USA) was used to calculate wound closure from wound images in each of the experimental groups over time. Non-parametric analysis (Kruskal Wallis—Multivariate Analysis followed by ad hoc two sample Mann Whitney U-test analysis) will be used to test the significance of any inter-group differences in wound closure.

## CC(=O)N1CCN(c2c(-c3ccncc3)c(-c3ccc(F)cc3)c(C#N)n2C)CC1 [p38 MAP kinase inhibitor]
1.0 μg per wound in 50 μl pH 4.0 vehicle, day 2 post-wounding
  % wound area remaining relative to day 0 (mean ± standard error): 86.15 ± 6.63%
1.0 μg per wound in 50 μl pH 4.0 vehicle, day 4 post-wounding
  % wound area remaining relative to day 0 (mean ± standard error): 66.32 ± 6.58%
1.0 μg per wound in 50 μl pH 4.0 vehicle, day 7 post-wounding
  % wound area remaining relative to day 0 (mean ± standard error): 38.65 ± 2.62%
1.0 μg per wound in 50 μl pH 4.0 vehicle, day 9 post-wounding
  % wound area remaining relative to day 0 (mean ± standard error): 18.87 ± 4.44%
1.0 μg per wound in 50 μl pH 4.0 vehicle, day 11 post-wounding
  % wound area remaining relative to day 0 (mean ± standard error): 6.03 ± 2.17%
10.0 μg per wound in 50 μl pH 4.0 vehicle, day 2 post-wounding
  % wound area remaining relative to day 0 (mean ± standard error): 75.48 ± 6.32%
10.0 μg per wound in 50 μl pH 4.0 vehicle, day 4 post-wounding
  % wound area remaining relative to day 0 (mean ± standard error): 58.34 ± 6.49%
10.0 μg per wound in 50 μl pH 4.0 vehicle, day 7 post-wounding
  % wound area remaining relative to day 0 (mean ± standard error): 29.80 ± 4.66%
10.0 μg per wound in 50 μl pH 4.0 vehicle, day 9 post-wounding
  % wound area remaining relative to day 0 (mean ± standard error): 13.31 ± 1.64%
10.0 μg per wound in 50 μl pH 4.0 vehicle, day 11 post-wounding
  % wound area remaining relative to day 0 (mean ± standard error): 3.34 ± 0.96%
10.0 μg, day 2, 7, 11 p=0.055, day 9 p=0.025 (statistically significant)
  closure compared to saline treatment: noticeably more rapid
10.0 μg, day 9 and day 11 assessment points
  wound size compared to citrate treated wounds: statistically smaller
Versus Citrate Buffer, pH 4.0, effect most apparent for the highest dose
  closure of diabetic wounds compared to treatment with the vehicle: appeared to accelerate the closure of diabetic wounds

Reference: patent US8957076B2, “Wound healing” (Systagenix Wound Management (US), Inc., priority 2004, dated 2015)
